Compound: C[C@@H](Oc1cc(-c2cnn(C3CCNCC3)c2)cnc1N)c1c(Cl)ccc(F)c1Cl [Crizotinib] + Cc1nc(NC(=O)N2CCC[C@H]2C(N)=O)sc1-c1ccnc(C(C)(C)C(F)(F)F)c1 [Alpelisib] (partner 2 µM)
Assay: relative viability (nuclei count vs DMSO), 5 days (fraction); higher = more cells survive
Conditions: first compound 1 µM
Procedure, shortened: (§1)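 Relative viability was taken as the ratio of nuclei in treated wells to nuclei in vehicle wells. Lung cancer cell lines in 1536-well plates received compounds by pin tool one day after seeding, either one drug alone or a fixed anchor-drug dose plus five library-drug doses (not always all listed) in √10 steps. Nuclei were counted on 4× images after 5 days of treatment, and values are medians of duplicate plates.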

Row | Cell Line | relative viability
1 | LCLC-97TM1 | 0.273
2 | LCLC-103H | 1.01
3 | LK-2 | 1.14
4 | LOU-NH91 | 0.742
5 | LU99A | 0.558
6 | LXF-289 | 1.03
7 | NCI-H727 | 0.685
8 | NCI-H1299 | 1
9 | NCI-H1563 | 0.782
10 | NCI-H1703 | 0.366
11 | NCI-H2170 | 0.904
12 | NCI-H2228 | 0.288

Compound: C[C@@H](Oc1cc(-c2cnn(C3CCNCC3)c2)cnc1N)c1c(Cl)ccc(F)c1Cl [Crizotinib] + C[C@]1(O)C[C@@H](c2nc(-c3ccc4ccc(-c5ccccc5)nc4c3)c3c(N)nccn32)C1 [Linsitinib] (partner 1 µM)
Assay: as above
Conditions: first compound 0.01 µM
Procedure, shortened: as §1

Row | Cell Line | relative viability
13 | 201T | 1.02
14 | A549 | 0.527
15 | A-427 | 1.1
16 | ABC-1 | 0.95
17 | BEN | 0.843
18 | CAL-12T | 0.753
19 | COR-L 105 | 1.14
20 | Calu-6 | 0.939
21 | EKVX | 1
22 | EMC-BAC-2 | 0.758
23 | EPLC-272H | 1.18
24 | H3255 | 0.806
25 | HARA | 0.919
26 | HCC-15 | 0.819
27 | HCC-44 | 0.646
28 | HCC-78 | 0.489

Row | Cell Line | relative viability
29 | HCC-366 | 0.64
30 | HCC-827 | 0.927
31 | HOP-62 | 0.81
32 | IA-LM | 0.611
33 | LC-2-ad | 0.872
34 | LCLC-97TM1 | 0.17
35 | LCLC-103H | 0.985
36 | LK-2 | 0.431
37 | LOU-NH91 | 0.902
38 | LU99A | 0.477
39 | LXF-289 | 0.91
40 | NCI-H727 | 0.305
41 | NCI-H1299 | 0.988
42 | NCI-H1563 | 1.18
43 | NCI-H1703 | 0.773
44 | NCI-H2228 | 0.629

Same assay, conditions: first compound 0.03162 µM

Row | Cell Line | relative viability
45 | A549 | 0.568
46 | A-427 | 1.12
47 | ABC-1 | 0.843
48 | BEN | 0.844
49 | CAL-12T | 0.904
50 | COR-L23 | 0.876
51 | COR-L 105 | 1
52 | Calu-6 | 1.05
53 | EBC-1 | 0.886
54 | EKVX | 0.998
55 | EMC-BAC-2 | 0.834
56 | EPLC-272H | 1.11
57 | H3255 | 0.924
58 | HARA | 0.978
59 | HCC-15 | 0.934
60 | HCC-44 | 0.721
61 | HCC-78 | 0.529

Row | Cell Line | relative viability
62 | HCC-366 | 0.679
63 | HCC-827 | 0.931
64 | HOP-62 | 0.946
65 | IA-LM | 0.748
66 | LC-2-ad | 0.879
67 | LCLC-97TM1 | 0.195
68 | LCLC-103H | 1.07
69 | LK-2 | 0.523
70 | LOU-NH91 | 0.916
71 | LU99A | 0.541
72 | LXF-289 | 0.972
73 | NCI-H727 | 0.282
74 | NCI-H1299 | 0.992
75 | NCI-H1563 | 1.12
76 | NCI-H1703 | 0.852
77 | NCI-H2228 | 0.733
